Values quoted from earlier work as cited in patent publication US20250241904A1, “COMPOSITION AND METHOD FOR PREVENTION AND TREATMENT OF CUTANEOUS RADIATION INJURY” (Rythera Therapeutics, Inc., priority 2022, published 2025).
Each block holds one compound with its values, some of them ahead of it.

Legend:
[1] = system: radiation proctopathy or proctitis; details: in vivo
mice = details: topical

Compound: Nc1ccc(O)c(C(=O)O)c1 [5-ASA, 5-aminosalicylic acid]
treating radiation proctopathy or proctitis [1]: unsuccessful

Compound: Sucralfate
treating radiation proctopathy or proctitis [1]: ineffective

itch-evoked scratching (mice): significant itch-evoked scratching
Compound: CN[C@H]1CC[C@@H](c2ccc(Cl)c(Cl)c2)c2ccccc21 [sertraline]

Compound: O=C1O[C@H]([C@@H](O)CO)C(O)=C1O [Vitamin C]
results of irradiated breast tissue (radiation dermatitis; in vivo): without improvement

Compound: NCCCNCCSP(=O)(O)O [amifostine]
dermato-cytoprotective effects (radiation dermatitis; retrospective analysis): significant dermato-cytoprotective effects

Compound: O=[N+]([O-])OCC(CO[N+](=O)[O-])O[N+](=O)[O-] [nitroglycerin]
treating radiation proctopathy or proctitis [1]: ineffective
